Measured values as given in US20120028358A1, “METHOD FOR INCREASING RETROVIRAL INFECTIVITY” (priority 2010, published 2012).

How the values were obtained:
rat PMVEC = assay: Gamma-retroviral infection efficiency of PMVEC (percent fluorescent cells by FACS); type: cell-based; conditions: for Retroviral infectivity versus control: increasing concentrations, Org 34517 0.1-30 μmol/L
Experimental: Cell cultures: Phoenix Retroviral Expression System ecotropic and amphotropic packaging cells were purchased from Orbigen, Inc. (San Diego, Calif.). […] Rat pulmonary microvascular endothelial cells (PMVEC), were obtained from our cell culture core at the University of South Alabama (King J, et al. Structural and functional characteristics of lung macro and microvascular endothelial phenotypes. Microvascular Res. 2004, March, 67(2). 139-151). Human glioblastoma cells (U87MG), and human mammary carcinoma cells (T47D) were obtained from ATCC. All cells were cultured in DMEM, 10% FBS, 2 mmol L-Glutamine and used for experiments at passages 4-9. All cells were grown in humidified incubators at 37° C. in 5% CO2. Cells were harvested by 0.05% trypsin/0.53 mM EDTA digestion, washed, re-suspended in cultured medium and analyzed directly by FACScan in the University of South Alabama Flow Cytometry Core. For cell cycle analysis cellular DNA was stained with […] of propridium iodide for 20 minutes as described elsewhere (48) and then analyzed by FACScan.
Vectors and delivery systems: pBMN-GFP (Orbigen, Inc., San Diego, Calif.), a retroviral vector that expresses GFP driven by the MMLV's promoter in Phoenix and other cells was used. In some experiments Murine Stem Cell Virus (MSCV) expressing mCherry and the hybrid retroviral vector Friend Murine Embryonic-stem cell Virus (FMEV) [for Friend Mink Cell Focus-forming (FMCF)/Murine Embryonic Stem cell Virus (MESV)](31) expressing DsRed2 were used in addition to MMLV. Two lentiviral vectors pLemiR (Open Biosystems, Huntsville, Ala.) and pLVX-DsRed-Monomer-C1 (Clontech Laboratories, Inc., Mountain View, Calif.) harboring turboRFP and DsRed as reporters were also used for comparison to gamma-retroviruses. Packaging cells were transfected with retroviral vectors using FuGENE 6 reagent following the manufacturer's instructions. For virus propagation, packaging cells were cultured in growth medium for 12-18 hours. Virus was collected with cultured medium, filtered, supplemented with hexadimethrine bromide (polybrene) to a final concentration of 4 μg/ml and applied directly to target cells.
Gamma-retroviral backbones containing genes encoding fluorescent proteins as reporters were propagated in Phoenix ecotropic packaging cells. Viral-conditioned supernatant was collected and applied to target cells (rat pulmonary microvascular endothelial cells, PMVEC).

progesterone receptor = molecular target: T1, progesterone receptor (Homo sapiens, UniProt P06401); conditions: cited from earlier work
T1 sequence (P06401 1-933): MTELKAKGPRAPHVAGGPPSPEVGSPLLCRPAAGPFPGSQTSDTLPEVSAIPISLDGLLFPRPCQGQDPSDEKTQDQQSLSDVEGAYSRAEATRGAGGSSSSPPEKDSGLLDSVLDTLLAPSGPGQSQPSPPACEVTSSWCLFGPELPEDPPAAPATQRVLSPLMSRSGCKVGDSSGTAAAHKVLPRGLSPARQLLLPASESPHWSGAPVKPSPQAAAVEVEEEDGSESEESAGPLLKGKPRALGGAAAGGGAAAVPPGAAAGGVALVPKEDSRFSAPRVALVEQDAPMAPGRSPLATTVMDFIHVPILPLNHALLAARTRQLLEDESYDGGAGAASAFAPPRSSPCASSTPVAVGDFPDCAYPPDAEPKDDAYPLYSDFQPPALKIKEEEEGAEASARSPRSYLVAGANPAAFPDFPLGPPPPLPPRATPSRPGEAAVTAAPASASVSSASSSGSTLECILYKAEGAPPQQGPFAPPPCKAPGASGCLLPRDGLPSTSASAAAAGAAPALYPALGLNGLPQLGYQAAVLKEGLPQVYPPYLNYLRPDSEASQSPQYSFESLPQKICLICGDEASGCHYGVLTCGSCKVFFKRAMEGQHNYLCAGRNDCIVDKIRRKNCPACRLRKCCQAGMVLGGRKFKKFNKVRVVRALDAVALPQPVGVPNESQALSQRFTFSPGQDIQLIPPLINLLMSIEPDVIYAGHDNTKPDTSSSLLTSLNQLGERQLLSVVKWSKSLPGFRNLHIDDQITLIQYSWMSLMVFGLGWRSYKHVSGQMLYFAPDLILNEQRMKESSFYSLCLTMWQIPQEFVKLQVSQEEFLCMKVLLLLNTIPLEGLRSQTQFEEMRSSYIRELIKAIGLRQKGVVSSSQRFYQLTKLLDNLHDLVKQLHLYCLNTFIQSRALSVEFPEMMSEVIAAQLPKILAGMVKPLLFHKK

glucocorticoid receptor = molecular target: T2, glucocorticoid receptor (Homo sapiens, UniProt P04150); conditions: cited from earlier work
T2 sequence (P04150 1-777): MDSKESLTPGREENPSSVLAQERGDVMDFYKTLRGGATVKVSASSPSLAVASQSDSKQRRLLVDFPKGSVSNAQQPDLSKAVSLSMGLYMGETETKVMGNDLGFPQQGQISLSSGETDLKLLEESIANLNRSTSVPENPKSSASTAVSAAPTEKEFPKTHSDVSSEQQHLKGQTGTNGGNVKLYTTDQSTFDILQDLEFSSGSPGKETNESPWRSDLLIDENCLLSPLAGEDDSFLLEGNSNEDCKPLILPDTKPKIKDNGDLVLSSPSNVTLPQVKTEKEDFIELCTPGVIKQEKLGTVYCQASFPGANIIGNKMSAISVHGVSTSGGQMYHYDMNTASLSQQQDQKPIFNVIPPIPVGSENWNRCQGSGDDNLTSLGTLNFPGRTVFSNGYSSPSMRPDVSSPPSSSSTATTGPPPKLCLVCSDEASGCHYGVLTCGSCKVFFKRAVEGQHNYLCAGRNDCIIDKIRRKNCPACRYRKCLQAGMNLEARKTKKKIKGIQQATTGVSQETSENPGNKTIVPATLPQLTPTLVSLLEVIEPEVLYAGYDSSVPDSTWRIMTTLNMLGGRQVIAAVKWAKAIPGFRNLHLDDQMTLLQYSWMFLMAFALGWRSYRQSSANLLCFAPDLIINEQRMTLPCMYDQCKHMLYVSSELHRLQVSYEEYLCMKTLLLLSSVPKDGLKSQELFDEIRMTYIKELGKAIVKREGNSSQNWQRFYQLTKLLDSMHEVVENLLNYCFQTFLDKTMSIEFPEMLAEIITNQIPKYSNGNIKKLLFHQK

[1] = system: rat pulmonary microvascular endothelial cells (PMVEC); assay: Percent GFP-positive (infected) target cells after conditioned medium from Phoenix cells; type: cell-based; conditions: conditioned medium from Phoenix cells grown with dexamethasone, plateau at 10 nmol
Phoenix cells and PMVEC = assay: Cell growth and survival of packaging and target cells

## C=C1OC(CC)=NC12CCC1C3CCC4=CC(=O)CCC4=C3C(c3ccc(C(C)=O)cc3)CC12C (centres unmarked) [7453-102, 11b-[4-(acetyl)phenyl)-4′,5′-dihydro-2′-ethyl-5′-methylenespiro[estra-4,9-dien-17b,4′-oxazole]-3-one]
Rat PMVEC
  Retroviral infectivity versus control: no effect
Progesterone receptor
  IC50: 0.34 nM

## CC#C[C@]1(O)CC[C@H]2[C@@H]3CCC4=CC(=O)CCC4=C3[C@@H](c3ccc4c(c3)OCO4)C[C@@]21C [Org 34517]
Rat PMVEC
  Potency in increasing retroviral infectivity relative to mifepristone: less potent than mifepristone
  Retroviral infectivity versus control: significantly increased
Glucocorticoid receptor
  IC50: 17.9 nM

## C[C@@H]1C[C@H]2[C@@H]3CCC4=CC(=O)C=C[C@]4(C)[C@@]3(F)[C@@H](O)C[C@]2(C)[C@@]1(O)C(=O)CO [dexamethasone, Dexamethasone]
[1]
  Percentage of GFP-positive (infected) PMVEC: 45%
Phoenix cells and PMVEC; over 7 days, retrovirus producing or target cells (data not shown)
  Cell growth: no effect
Phoenix cells and PMVEC; packaging or target cells
  Adverse effects on cell growth or survival: did not cause any evident adverse effects
